The values that follow come from US20070099938A1, “Antistress drug and medical use thereof” (ONO PHARMACEUTICAL CO., LTD., priority 2003, published 2007).

This test addresses T1, MBR (Rattus norvegicus, UniProt P16257).
T1 construct: from tissue; host or cells: whole brain without cerebellum of male Wistar rats, crude membrane pellet
In words: Receptor binding experiment ([3H]PK11195 competition, rat brain membrane preparation). To be noted: [3H]PK11195 0.5 or 1 nmol/L, Cheng and Prusoff from KD and IC50. The procedure: The affinity of the compounds in the present invention to MBR was determined using rat brain membrane preparation. In addition, the measurement in the present invention was improved the accuracy of measurement and the sensitivity of measurement for evaluating the compounds in the present invention as follows. After male Wister rats were decapitated to extirpate the whole brain and cerebellums were removed. They were homogenized in ice-cold 50 mmol/L Tris-HCL buffer solution (pH 7.4), centrifuged and the obtained pellets were washed. The pellets resuspended and adjusted to about 1 mg/mL were used as rat brain membrane preparations for binding assay. The binding assay were experimented using [^3H]PK11195 as a MBR selective ligand. […]
To determine the amount of total binding in saturation binding experiment, membrane preparations, various concentrations of [^3H]PK11195, final concentration: 0.5 vol % dimethylsulfoxide (DMSO) and 50 mmol/L Tris-HCL buffer solution (pH 7.4) were mixed (total volume 200 μL) and were incubated for 1 hour at room temperature. […] The filter was dried and then the radioactivity on the filter was measured by liquid scintillation counter. The data obtained by the binding experiments were Scatchard analyzed using analysis software, KELL (Ver.6, BIOSOFT) and the dissociation constant (KD value) was determined. […]

As to `CC(=O)Nc1cccc(-c2ccnc(NC(=O)c3ccccc3)n2)c1` [Example 3(46), N-{4-[3-(acetylamino)phenyl]pyrimidin-2-yl}benzamide], the Ki (as a rule, a dissociation constant, usually derived from enzyme kinetics or from competition with a known ligand) was 360 nM.

`O=S(=O)(Nc1nccc(-c2cc(OC(F)F)ccc2OC(F)F)n1)c1ccccc1` [Example 5(2), N-{4-[2,5-bis(difluoromethoxy)phenyl]pyrimidin-2-yl}benzenesulfonamide] gave a Ki of 10 nM.
